Tests used:
Type in all cases: cell-based
hPiezo1 = target: T1, hPiezo1 (Homo sapiens, UniProt Q92508); test: FLIPR calcium influx (Fluo3), transfected HEK293T, 384-well; settings: agonist; pH 7.4, HBSS with 1.26 mM CaCl2; unreliable (compound insolubility above ~20 μM)
T1 construct: gene PIEZO1; cDNA transiently transfected in HEK293T cells

mPiezo2 = target: T2, mPiezo2 (Mus musculus, UniProt Q8CD54); test: whole-cell patch clamp of mechanically activated currents, transfected HEK293T; settings: 10 μM Yoda1, up to 5 min, -80 mV; selectivity control
T2 construct: gene Piezo2; cDNA transiently transfected in HEK293T cells

mPiezo1 = target: T3, mPiezo1 (Mus musculus, UniProt E2JF22); test: FLIPR calcium influx (Fluo3), transfected HEK293T, 384-well; settings: agonist; pH 7.4, HBSS with 1.26 mM CaCl2; unreliable (compound insolubility above ~20 μM)
T3 construct: gene Piezo1; full-length cDNA transiently transfected in HEK293T (mPiezo1-IRES GFP for imaging and patch clamp); for bilayers purified protein as in Coste et al. 2012
T3 sequence (E2JF22 whole entry): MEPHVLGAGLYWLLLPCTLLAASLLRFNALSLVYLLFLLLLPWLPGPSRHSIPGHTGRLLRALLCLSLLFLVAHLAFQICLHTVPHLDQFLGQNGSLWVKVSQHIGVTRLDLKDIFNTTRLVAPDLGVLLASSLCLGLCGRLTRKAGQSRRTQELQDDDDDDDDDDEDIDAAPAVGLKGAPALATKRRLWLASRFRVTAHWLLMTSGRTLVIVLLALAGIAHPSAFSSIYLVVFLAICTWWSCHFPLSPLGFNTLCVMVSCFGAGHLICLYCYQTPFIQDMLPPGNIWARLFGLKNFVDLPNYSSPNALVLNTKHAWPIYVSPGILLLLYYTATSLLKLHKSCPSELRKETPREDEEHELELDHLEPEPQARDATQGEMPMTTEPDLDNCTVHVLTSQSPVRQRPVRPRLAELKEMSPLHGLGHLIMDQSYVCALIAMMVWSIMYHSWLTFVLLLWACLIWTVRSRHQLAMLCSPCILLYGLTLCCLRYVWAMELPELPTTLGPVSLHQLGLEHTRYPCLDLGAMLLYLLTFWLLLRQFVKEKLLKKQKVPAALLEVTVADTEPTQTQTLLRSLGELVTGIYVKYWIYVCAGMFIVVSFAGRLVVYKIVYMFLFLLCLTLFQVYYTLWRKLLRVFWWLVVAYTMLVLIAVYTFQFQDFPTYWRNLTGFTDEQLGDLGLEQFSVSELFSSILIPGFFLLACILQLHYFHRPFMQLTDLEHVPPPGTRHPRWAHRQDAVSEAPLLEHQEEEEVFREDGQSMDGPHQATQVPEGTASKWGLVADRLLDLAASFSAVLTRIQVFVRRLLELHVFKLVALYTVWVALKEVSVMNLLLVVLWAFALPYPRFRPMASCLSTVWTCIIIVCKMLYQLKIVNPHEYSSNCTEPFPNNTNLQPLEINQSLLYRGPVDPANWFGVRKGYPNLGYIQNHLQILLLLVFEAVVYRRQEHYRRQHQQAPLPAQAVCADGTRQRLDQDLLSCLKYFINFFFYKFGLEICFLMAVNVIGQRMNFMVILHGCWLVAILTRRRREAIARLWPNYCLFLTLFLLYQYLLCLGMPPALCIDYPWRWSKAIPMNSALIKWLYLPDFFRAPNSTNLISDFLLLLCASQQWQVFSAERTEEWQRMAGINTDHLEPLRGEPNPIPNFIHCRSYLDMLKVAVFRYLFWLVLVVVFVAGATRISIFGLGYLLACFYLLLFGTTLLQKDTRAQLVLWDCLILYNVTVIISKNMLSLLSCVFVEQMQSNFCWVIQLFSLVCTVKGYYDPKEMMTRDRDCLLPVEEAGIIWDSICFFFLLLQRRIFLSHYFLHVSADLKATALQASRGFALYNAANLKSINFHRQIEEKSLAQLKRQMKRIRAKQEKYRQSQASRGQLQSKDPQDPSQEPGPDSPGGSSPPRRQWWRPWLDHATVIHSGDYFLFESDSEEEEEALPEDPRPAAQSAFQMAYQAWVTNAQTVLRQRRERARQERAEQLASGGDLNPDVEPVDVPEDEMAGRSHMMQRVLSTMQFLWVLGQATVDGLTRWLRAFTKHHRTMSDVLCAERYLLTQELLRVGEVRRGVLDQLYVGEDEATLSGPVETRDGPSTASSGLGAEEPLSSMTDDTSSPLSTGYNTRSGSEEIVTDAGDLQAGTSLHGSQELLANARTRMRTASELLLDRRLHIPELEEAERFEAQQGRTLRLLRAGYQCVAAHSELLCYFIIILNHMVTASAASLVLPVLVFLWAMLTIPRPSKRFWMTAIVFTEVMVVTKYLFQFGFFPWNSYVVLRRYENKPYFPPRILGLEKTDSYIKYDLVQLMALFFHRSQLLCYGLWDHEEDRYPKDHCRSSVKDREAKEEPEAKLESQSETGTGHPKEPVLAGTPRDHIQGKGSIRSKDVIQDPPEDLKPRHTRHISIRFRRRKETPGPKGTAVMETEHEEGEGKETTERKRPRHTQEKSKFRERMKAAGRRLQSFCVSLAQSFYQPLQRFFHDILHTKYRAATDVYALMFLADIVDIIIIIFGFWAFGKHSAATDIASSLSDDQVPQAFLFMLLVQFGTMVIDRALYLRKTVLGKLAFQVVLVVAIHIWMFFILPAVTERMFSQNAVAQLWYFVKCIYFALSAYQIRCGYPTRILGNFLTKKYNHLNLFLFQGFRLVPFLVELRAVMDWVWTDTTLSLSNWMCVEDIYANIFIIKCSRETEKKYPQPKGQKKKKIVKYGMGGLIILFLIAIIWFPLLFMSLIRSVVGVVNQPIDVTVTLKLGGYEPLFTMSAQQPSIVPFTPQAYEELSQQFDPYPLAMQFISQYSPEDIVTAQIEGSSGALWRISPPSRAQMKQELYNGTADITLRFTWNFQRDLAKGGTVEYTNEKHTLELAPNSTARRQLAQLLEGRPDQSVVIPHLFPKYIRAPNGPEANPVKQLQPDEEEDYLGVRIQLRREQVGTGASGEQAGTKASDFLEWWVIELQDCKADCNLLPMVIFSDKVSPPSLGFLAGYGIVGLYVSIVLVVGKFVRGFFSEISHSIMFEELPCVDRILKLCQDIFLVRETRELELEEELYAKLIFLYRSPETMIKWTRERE

T1 sequence (Q92508 whole entry): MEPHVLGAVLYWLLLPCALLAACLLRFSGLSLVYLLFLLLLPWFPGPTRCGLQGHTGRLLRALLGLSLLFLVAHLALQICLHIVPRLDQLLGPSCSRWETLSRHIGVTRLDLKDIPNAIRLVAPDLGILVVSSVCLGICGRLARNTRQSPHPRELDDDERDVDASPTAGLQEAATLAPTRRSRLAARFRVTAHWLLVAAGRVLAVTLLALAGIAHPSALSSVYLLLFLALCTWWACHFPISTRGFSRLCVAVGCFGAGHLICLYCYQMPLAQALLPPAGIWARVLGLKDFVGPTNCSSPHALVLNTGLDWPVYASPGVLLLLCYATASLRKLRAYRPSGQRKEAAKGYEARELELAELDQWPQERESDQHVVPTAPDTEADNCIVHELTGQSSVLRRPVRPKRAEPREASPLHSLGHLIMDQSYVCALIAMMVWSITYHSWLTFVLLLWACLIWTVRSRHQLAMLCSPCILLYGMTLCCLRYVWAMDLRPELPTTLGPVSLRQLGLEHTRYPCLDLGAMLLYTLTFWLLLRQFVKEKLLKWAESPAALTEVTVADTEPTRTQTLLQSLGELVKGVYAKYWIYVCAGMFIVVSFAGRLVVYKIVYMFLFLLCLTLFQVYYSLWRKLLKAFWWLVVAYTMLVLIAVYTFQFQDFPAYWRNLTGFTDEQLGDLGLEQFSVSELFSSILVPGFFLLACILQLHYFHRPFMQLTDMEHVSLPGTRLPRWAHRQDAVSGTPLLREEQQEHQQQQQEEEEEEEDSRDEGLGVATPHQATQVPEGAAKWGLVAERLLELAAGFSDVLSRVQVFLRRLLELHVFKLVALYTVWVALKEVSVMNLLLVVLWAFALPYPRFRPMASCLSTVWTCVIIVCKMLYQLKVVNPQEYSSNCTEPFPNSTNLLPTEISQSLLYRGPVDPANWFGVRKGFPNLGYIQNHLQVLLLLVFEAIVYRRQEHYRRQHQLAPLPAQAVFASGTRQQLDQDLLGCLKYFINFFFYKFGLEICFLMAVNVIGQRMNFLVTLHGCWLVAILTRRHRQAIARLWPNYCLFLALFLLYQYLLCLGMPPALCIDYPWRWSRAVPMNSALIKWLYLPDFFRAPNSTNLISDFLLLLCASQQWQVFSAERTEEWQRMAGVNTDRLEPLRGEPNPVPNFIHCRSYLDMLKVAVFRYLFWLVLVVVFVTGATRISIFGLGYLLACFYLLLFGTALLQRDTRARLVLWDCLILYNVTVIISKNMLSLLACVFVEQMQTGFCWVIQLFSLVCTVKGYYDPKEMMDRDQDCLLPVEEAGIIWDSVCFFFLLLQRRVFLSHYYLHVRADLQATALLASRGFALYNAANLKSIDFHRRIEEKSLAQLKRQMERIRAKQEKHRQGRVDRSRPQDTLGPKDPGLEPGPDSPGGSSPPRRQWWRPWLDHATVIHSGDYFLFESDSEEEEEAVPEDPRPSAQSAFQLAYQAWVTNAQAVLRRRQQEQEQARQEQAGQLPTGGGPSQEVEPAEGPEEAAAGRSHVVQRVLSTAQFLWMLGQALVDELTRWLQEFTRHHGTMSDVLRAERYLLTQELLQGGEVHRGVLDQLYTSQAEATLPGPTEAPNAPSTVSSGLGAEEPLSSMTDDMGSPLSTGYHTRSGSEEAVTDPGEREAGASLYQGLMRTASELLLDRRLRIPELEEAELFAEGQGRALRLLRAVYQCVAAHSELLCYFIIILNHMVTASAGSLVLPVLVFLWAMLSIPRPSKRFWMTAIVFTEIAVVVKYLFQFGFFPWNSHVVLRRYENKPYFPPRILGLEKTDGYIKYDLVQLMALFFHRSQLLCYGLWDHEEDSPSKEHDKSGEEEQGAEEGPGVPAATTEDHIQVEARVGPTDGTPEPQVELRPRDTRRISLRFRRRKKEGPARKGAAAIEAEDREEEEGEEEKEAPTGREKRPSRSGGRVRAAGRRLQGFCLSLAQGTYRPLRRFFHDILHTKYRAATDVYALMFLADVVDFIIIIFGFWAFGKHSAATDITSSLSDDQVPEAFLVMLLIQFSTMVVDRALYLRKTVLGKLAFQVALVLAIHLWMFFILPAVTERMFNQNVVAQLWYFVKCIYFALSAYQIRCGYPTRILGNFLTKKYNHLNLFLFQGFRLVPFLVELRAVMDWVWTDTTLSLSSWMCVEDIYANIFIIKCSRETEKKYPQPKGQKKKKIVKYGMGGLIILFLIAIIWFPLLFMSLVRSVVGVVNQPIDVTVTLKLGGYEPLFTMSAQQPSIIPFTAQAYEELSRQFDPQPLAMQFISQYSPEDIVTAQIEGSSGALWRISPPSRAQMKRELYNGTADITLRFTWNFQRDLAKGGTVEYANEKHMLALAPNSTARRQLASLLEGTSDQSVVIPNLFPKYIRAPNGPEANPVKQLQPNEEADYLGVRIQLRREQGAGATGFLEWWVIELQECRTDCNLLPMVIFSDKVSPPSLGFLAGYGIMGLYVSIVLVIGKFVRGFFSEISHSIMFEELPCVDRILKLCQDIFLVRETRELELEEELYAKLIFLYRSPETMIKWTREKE

apparent EC50 (hPiezo1): 26.6 (95% CI 20.6 to 34.4) μM
apparent EC50 (mPiezo1): 17.1 (95% CI 13.4 to 21.9) μM
Compound: Clc1cccc(Cl)c1CSc1nnc(-c2cnccn2)s1 [Yoda1]
whole-cell patch clamp of mechanically activated currents, transfected HEK293T (mPiezo2): No effect was observed upon Yoda1 exposure

Source: publication PMC4456433, “Chemical activation of the mechanotransduction channel Piezo1” (eLife, 2015)
